Reference: patent US11725012B2, “Imidazo[1,5-a]pyrazine derivatives as PI3K δ inhibitors” (priority 2016, dated 2023)

Legend:
Assay type in all cases: biochemical
[1] = target: recombinant PI3K (p110δ/p85α) (Homo sapiens, UniProt O00329); assay: PI3Kδ ADP-Glo kinase assay; conditions: read-out: PI3Kδ Enzyme activity IC50
Method: Compounds disclosed herein were tested for inhibition of PI3Kδ kinase activity using commercial ADP-Glo™ Kinase Assay (Promega Corporation) and following the manufacture's instruction. Briefly, recombinant PI3K (p110δ/p85α) enzyme, lipid kinase substrate and a serial dilution of compounds disclosed herein were incubated for 0.5 hr at room temperature. ATP was added to initiate the kinase reaction. After incubation for 1 hr at room temperature, ADP-Glo™ reagent was added to terminate the kinase reaction and deplete the remaining ATP. After incubation for 1 hr at room temperature, kinase detection reagent was added to simultaneously convert ADP to ATP and allow the newly synthesized ATP to be measured using a luciferase/luciferin reaction. After incubation for 0.5 hr at room temperature, the luminescence generated was measured on a PHERAstar FS plate reader (BMG LABTECH), The residual enzyme activity in presence of increasing concentrations of compounds was calculated based on the luminescence. The IC50 for each compound was derived from fitting the data to the four-parameter logistic equation by Graphpad Prism software.

PI3K (p110γ) = PI3K (p110γ) (Homo sapiens, UniProt P48736); assay: PI3Kγ ADP-Glo kinase assay; conditions: for IC50: read-out: PI3Kγ Enzyme activity IC50; for inhibition at 0.5 µM: read-out: PI3Kγ max inhibition (%) at 0.5 μM
[2] = target: recombinant PI3K (p110α/p85α) (Homo sapiens, UniProt P42336); assay: PI3Kα ADP-Glo kinase assay; conditions: for IC50: read-out: PI3Kα Enzyme activity IC50; for inhibition at 0.5 µM: read-out: PI3Kα max inhibition (%) at 0.5 μM
PI3K (p110β/p85α) = PI3K (p110β/p85α) (Homo sapiens, UniProt P42338); assay: PI3Kβ ADP-Glo kinase assay; conditions: for IC50: read-out: PI3Kβ Enzyme activity IC50
Sequence of PI3K (p110β/p85α) (P42338 whole entry): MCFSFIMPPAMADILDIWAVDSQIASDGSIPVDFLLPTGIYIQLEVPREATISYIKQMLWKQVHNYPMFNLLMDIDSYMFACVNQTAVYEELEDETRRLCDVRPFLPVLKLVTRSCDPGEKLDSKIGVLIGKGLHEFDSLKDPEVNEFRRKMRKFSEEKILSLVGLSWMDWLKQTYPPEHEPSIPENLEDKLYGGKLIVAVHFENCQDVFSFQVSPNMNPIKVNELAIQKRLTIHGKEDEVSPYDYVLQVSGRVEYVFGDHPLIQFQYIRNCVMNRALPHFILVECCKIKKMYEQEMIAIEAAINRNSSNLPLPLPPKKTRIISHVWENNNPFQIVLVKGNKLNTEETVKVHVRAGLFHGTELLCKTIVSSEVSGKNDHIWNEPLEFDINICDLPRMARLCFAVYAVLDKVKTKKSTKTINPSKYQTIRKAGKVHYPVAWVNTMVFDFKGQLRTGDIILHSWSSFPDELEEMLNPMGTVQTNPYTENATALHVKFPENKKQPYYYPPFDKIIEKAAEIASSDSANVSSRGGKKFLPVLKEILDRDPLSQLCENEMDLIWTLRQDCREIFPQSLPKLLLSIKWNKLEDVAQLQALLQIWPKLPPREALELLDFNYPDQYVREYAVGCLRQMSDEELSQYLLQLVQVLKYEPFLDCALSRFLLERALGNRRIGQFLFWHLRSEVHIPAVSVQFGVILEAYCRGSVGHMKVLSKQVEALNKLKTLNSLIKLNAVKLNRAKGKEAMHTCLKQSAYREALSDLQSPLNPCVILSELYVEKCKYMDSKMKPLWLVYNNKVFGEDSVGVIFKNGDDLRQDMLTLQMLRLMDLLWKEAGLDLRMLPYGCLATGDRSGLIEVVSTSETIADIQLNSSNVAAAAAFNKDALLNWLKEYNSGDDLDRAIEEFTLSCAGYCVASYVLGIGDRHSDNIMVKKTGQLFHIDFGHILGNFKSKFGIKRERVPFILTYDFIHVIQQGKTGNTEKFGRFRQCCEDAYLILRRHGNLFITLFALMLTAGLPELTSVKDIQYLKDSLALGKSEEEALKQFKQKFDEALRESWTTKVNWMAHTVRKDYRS
Sequence of PI3K (p110β/p85α) (P27986 whole entry partner): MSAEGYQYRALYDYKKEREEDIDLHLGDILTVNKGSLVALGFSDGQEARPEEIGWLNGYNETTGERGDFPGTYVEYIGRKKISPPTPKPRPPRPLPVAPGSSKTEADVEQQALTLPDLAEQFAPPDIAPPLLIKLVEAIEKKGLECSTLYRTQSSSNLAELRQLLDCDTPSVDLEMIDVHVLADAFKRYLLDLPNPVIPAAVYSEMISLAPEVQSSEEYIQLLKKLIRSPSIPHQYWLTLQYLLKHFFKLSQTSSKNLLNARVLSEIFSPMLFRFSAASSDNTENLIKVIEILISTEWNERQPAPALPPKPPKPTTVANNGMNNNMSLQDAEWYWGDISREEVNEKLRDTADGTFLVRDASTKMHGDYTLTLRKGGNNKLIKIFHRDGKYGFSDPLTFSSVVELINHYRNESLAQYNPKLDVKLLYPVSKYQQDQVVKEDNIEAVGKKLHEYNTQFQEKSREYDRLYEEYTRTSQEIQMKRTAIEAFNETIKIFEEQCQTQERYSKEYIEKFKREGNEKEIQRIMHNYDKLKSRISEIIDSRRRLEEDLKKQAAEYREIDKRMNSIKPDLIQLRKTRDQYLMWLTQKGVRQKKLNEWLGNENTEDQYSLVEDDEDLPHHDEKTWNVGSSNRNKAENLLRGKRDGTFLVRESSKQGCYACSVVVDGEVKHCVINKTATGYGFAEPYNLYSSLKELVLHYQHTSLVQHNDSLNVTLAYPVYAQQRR

Sequence of recombinant PI3K (p110δ/p85α) (O00329 whole entry): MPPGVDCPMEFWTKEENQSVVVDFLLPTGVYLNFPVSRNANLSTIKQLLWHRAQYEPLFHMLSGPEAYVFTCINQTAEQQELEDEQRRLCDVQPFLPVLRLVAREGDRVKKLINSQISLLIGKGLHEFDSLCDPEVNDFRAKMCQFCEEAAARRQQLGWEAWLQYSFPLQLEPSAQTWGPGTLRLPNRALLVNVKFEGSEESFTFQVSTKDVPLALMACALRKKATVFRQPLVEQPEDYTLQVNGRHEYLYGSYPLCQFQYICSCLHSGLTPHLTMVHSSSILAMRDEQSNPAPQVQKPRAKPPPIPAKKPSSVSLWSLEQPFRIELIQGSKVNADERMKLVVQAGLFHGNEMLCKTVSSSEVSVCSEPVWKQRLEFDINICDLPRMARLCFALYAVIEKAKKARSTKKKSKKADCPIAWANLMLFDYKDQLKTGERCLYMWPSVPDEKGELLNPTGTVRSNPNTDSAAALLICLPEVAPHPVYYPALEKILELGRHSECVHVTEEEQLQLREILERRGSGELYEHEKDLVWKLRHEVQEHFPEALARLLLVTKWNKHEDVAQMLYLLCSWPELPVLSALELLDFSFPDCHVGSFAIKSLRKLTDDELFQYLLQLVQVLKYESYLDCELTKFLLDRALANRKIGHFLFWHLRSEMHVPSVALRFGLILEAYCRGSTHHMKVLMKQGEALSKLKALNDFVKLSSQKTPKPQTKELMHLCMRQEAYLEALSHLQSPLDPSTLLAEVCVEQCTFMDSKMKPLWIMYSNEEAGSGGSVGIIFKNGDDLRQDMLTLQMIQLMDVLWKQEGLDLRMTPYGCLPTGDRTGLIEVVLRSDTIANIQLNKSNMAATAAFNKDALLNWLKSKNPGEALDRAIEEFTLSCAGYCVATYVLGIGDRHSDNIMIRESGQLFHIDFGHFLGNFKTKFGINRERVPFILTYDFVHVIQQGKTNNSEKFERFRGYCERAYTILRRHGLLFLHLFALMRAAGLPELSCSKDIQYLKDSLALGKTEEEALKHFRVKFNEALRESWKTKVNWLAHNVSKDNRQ
Sequence of recombinant PI3K (p110δ/p85α) (P27986 whole entry partner): as the sequence (P27986 whole entry partner) above
Sequence of PI3K (p110γ) (P48736 whole entry): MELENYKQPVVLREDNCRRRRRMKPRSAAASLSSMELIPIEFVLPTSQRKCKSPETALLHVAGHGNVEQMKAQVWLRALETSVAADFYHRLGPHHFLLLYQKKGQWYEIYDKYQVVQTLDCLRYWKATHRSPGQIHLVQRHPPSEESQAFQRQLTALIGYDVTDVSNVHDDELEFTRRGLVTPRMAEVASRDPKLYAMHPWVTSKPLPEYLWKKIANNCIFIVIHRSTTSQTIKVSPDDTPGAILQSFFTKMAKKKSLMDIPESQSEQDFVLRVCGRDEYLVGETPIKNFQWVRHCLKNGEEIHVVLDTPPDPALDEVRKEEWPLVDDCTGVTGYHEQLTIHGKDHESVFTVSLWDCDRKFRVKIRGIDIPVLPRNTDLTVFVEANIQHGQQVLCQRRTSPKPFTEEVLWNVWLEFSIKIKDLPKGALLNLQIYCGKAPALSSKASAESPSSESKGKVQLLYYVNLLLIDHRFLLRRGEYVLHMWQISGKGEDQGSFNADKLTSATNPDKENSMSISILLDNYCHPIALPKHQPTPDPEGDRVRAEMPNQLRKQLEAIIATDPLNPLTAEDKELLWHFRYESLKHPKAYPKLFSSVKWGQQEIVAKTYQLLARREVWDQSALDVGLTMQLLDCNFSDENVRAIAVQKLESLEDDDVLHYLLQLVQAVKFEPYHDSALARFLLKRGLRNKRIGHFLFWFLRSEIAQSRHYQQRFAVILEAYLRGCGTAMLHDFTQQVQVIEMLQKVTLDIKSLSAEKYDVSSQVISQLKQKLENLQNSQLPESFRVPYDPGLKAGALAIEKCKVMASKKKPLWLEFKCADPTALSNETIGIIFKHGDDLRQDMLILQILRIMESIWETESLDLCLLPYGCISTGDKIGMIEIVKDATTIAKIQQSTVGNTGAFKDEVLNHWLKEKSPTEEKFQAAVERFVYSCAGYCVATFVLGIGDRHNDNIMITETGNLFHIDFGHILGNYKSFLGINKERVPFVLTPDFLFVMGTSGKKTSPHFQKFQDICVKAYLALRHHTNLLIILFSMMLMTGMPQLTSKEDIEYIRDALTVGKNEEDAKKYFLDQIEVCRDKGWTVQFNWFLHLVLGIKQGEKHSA
Sequence of recombinant PI3K (p110α/p85α) (P42336 whole entry): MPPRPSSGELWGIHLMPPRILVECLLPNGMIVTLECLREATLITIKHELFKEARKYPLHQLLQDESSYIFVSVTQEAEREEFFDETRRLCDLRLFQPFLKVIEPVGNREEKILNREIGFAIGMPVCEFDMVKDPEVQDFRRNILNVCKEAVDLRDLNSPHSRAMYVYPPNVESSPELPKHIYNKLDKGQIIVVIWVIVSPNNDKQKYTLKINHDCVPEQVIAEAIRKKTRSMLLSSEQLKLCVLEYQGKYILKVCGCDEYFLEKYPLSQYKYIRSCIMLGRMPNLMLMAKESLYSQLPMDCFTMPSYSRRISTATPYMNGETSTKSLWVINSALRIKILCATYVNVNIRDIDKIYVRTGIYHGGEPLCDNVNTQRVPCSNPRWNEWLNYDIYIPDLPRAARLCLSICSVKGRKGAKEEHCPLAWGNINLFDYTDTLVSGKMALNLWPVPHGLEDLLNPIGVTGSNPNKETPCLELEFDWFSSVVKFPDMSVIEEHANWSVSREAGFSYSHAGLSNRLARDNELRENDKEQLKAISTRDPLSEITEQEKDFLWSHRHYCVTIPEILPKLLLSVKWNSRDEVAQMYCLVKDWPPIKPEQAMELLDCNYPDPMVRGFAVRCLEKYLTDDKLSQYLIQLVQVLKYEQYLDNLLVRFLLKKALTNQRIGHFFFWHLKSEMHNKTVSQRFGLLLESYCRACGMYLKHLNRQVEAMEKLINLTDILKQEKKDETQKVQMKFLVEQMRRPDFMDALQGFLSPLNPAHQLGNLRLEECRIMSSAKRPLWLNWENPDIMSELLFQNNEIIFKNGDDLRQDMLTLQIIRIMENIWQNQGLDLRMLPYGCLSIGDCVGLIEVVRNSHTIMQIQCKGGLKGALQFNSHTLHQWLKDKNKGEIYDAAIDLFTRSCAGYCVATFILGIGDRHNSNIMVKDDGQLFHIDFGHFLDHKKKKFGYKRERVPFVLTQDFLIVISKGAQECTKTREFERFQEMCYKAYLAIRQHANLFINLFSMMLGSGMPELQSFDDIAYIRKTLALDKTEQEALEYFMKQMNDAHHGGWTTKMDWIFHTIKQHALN
Sequence of recombinant PI3K (p110α/p85α) (P27986 whole entry partner): as the sequence (P27986 whole entry partner) above

Structure (SMILES)	IC50 [1]	other results
CC(C)Oc1c(C(C)c2nc(Cl)c3c(N)nccn23)cc(Cl)c(F)c1-c1ccc(C(=O)O)nc1 (single isomer, unassigned) [Compound 18B]	26 nM	–
CC(C)Oc1c(C(C)c2nc(Cl)c3c(N)nccn23)cc(Cl)c(F)c1C1CNC(=O)C1 (single isomer, unassigned) [Compound 48A, 4-(3-(1-(8-amino-1-chloroimidazo[1,5-a]pyrazin-3-yl)ethyl)-5-chloro-6-fluoro-2-isopropoxyphenyl)pyrrolidin-2-one]	0.4 nM	IC50 (PI3K (p110γ)): 800 nM; IC50 [2]: 4800 nM; IC50 (PI3K (p110β/p85α)): 440 nM
CC(C)Oc1c(C(C)c2nc(Cl)c3c(N)nccn23)cc(Cl)c(F)c1C1CNC(=O)C1 (single isomer, unassigned) [Compound 48C, 4-(3-(1-(8-amino-1-chloroimidazo[1,5-a]pyrazin-3-yl)ethyl)-5-chloro-6-fluoro-2-isopropoxyphenyl)pyrrolidin-2-one]	160 nM	–
CC(C)Oc1c(C(C)c2nc(Cl)c3c(N)nccn23)cc(Cl)c(F)c1C1CNC(=O)C1 (single isomer, unassigned) [Compound 48D, 4-(3-(1-(8-amino-1-chloroimidazo[1,5-a]pyrazin-3-yl)ethyl)-5-chloro-6-fluoro-2-isopropoxyphenyl)pyrrolidin-2-one]	6.8 nM	–
CCOc1c(C(C)c2nc(Cl)c3c(N)nccn23)cc(Cl)c(F)c1C1CCOCC1 (single isomer, unassigned) [Compound 49A, 1-chloro-3-(1-(5-chloro-2-ethoxy-4-fluoro-3-(tetrahydro-2H-pyran-4-yl)phenyl)ethyl)imidazo[1,5-a]pyrazin-8-amine]	0.49 nM	IC50 (PI3K (p110γ)): 440 nM; IC50 [2]: 2100 nM; IC50 (PI3K (p110β/p85α)): 260 nM
CCOc1c(C(C)c2nc(Cl)c3c(N)nccn23)cc(Cl)c(F)c1C1CCOCC1 (single isomer, unassigned) [Compound 49B, 1-chloro-3-(1-(5-chloro-2-ethoxy-4-fluoro-3-(tetrahydro-2H-pyran-4-yl)phenyl)ethyl)imidazo[1,5-a]pyrazin-8-amine]	26 nM	–
CCOc1c(C(C)c2nc(Cl)c3c(N)nccn23)cc(Cl)c(C)c1N1CCOCC1 (single isomer, unassigned) [Compound 51B, 1-chloro-3-(1-(5-chloro-2-ethoxy-4-methyl-3-morpholinophenyl)ethyl)imidazo[1,5-a]pyrazin-8-amine]	320 nM	–
Cc1nc(C(C)c2cc(Cl)c(F)c(-c3ccc(C#N)nc3)c2OC(C)C)n2ccnc(N)c12 (single isomer, unassigned) [Compound 59B, 5-(3-(1-(8-amino-1-methylimidazo[1,5-a]pyrazin-3-yl)ethyl)-5-chloro-6-fluoro-2-isopropoxyphenyl)picolinonitrile]	240 nM	–
COc1c(C(C)c2ncc3c(N)nccn23)cc(Cl)c(C)c1-c1cccnc1 (stereo not drawn) [Compound 1, 3-(1-(5-chloro-2-methoxy-4-methyl-3-(pyridin-3-yl)phenyl)ethyl)imidazo[1,5-a]pyrazine-8-amine]	150 nM	inhibition at 0.5 µM (PI3K (p110γ)): -27%; inhibition at 0.5 µM (PI3K (p110β/p85α); read-out: PI3Kβ max inhibition (%) at 0.5 μM): 6%
COc1c(C(C)c2nc(Br)c3c(N)nccn23)cc(Cl)c(C)c1-c1cccnc1 (stereo not drawn) [Compound 2, 1-bromo-3-(1-(5-chloro-2-methoxy-4-methyl-3-(pyridin-3-yl)phenyl)ethyl)imidazo[1,5-a]pyrazin-8-amine]	1.5 nM	inhibition at 0.5 µM (PI3K (p110γ)): 37%; IC50 [2]: 560 nM
COc1c(C(C)c2nc(-c3ccccc3)c3c(N)nccn23)cc(Cl)c(C)c1-c1cccnc1 (stereo not drawn) [Compound 3, 3-(1-(5-chloro-2-methoxy-4-methyl-3-(pyridin-3-yl)phenyl)ethyl)-1-phenylimidazo[1,5-a]pyrazin-8-amine]	150 nM	–
COc1c(C(C)c2nc(-c3cccc(O)c3)c3c(N)nccn23)cc(Cl)c(C)c1-c1cccnc1 (stereo not drawn) [Compound 4, 3-(8-amino-3-(1-(5-chloro-2-methoxy-4-methyl-3-(pyridin-3-yl)phenyl)ethyl)imidazo[1,5-a]pyrazin-1-yl)phenol]	7.5 nM	inhibition at 0.5 µM (PI3K (p110γ)): 9%; inhibition at 0.5 µM [2]: 20%
COc1c(C(C)c2nc(Br)c3c(N)ncc(Cl)n23)cc(Cl)c(C)c1-c1cccnc1 (stereo not drawn) [Compound 5, 1-bromo-5-chloro-3-(1-(5-chloro-2-methoxy-4-methyl-3-(pyridin-3-yl)phenyl)ethyl) imidazo[1,5-a]pyrazin-8-amine]	18 nM	inhibition at 0.5 µM (PI3K (p110γ)): 44%; inhibition at 0.5 µM [2]: 19%
COc1c(C(C)c2nc(Cl)c3c(N)nccn23)cc(Cl)c(C)c1-c1cccnc1 (stereo not drawn) [Compound 6, 1-chloro-3-(1-(5-chloro-2-methoxy-4-methyl-3-(pyridin-3-yl)phenyl)ethyl)imidazo[1,5-a]pyrazin-8-amine]	2 nM	inhibition at 0.5 µM (PI3K (p110γ)): 52%; inhibition at 0.5 µM [2]: 34%
CCOc1c(C(C)c2nc(Br)c3c(N)nccn23)cc(Cl)c(C)c1-c1ccc(C)nc1 (stereo not drawn) [Compound 7, 1-bromo-3-(1-(5-chloro-2-ethoxy-4-methyl-3-(6-methylpyridin-3-yl)phenyl)ethyl) imidazo[1,5-a]pyrazin-8-amine]	1.9 nM	IC50 (PI3K (p110γ)): 200 nM; IC50 [2]: 420 nM
CCOc1c([C@@H](C)c2nc(Cl)c3c(N)nccn23)cc(Cl)c(C)c1-c1ccc(C)nc1 [Compound 8B]	170 nM	–

Structure (SMILES)	IC50 [1]	other results
CCOc1c(C(C)c2nc(Br)c3c(N)nccn23)cc(Cl)c(C)c1-c1ccc(Cl)cc1 (stereo not drawn) [Compound 9, 1-bromo-3-(1-(4′,5-dichloro-2-ethoxy-6-methyl-[1,1′-biphenyl]-3-yl)ethyl)imidazo[1,5-a]pyrazin-8-amine]	100 nM	–
CC(C)Oc1c([C@@H](C)c2nc(Cl)c3c(N)nccn23)cc(Cl)c(F)c1-c1ccc(C(=O)N(C)C)nc1 [Compound 16B]	62 nM	–
CC(C)Oc1c([C@@H](C)c2nc(Cl)c3c(N)nccn23)cc(Cl)c(F)c1-c1ccc(C(N)=O)nc1 [Compound 17A]	91 nM	–
COc1c(C(C)c2nc(Br)c3c(N)nccn23)cc(Cl)c(C)c1-c1c(C)noc1C (stereo not drawn) [Compound 21, 1-bromo-3-(1-(5-chloro-3-(3,5-dimethylisoxazol-4-yl)-2-methoxy-4-methylphenyl)ethyl)imidazo[1,5-a]pyrazin-8-amine]	3.3 nM	IC50 (PI3K (p110γ)): 1500 nM; IC50 [2]: 2000 nM
CCOc1c([C@@H](C)c2nc(Cl)c3c(N)nccn23)cc(Cl)c(C)c1-c1ccc(Cl)nc1 [Compound 27B]	500 nM	–
CCOc1c(C(C)c2nc(C)c3c(N)nccn23)cc(F)c(Cl)c1-c1ccc(C(F)(F)F)nc1 (stereo not drawn) [Compound 34, 3-(1-(4-chloro-2-ethoxy-5-fluoro-3-(6-(trifluoromethyl)pyridin-3-yl)phenyl)ethyl)-1-methylimidazo[1,5-a]pyrazin-8-amine]	43 nM	–
Cc1c(Cl)cc([C@@H](C)c2nc(Br)c3c(N)nccn23)c(OC(C)C)c1-c1ccc(C(F)(F)F)nc1 [Compound 38B]	2100 nM	–
CC(C)Oc1c([C@@H](C)c2nc(Cl)c3c(N)nccn23)cc(Cl)c(F)c1-c1ccc(C(F)(F)F)nc1 [Compound 40B]	150 nM	–
CCOc1c([C@@H](C)c2nc(Cl)c3c(N)nccn23)cc(Cl)c(F)c1-c1ccc(C(F)(F)F)nc1 [Compound 41B]	350 nM	–
CCCOc1c([C@@H](C)c2nc(Cl)c3c(N)nccn23)cc(Cl)c(F)c1-c1ccc(C(F)(F)F)nc1 [Compound 42B]	330 nM	–
CCOc1c([C@@H](C)c2nc(Cl)c3c(N)nccn23)cc(Cl)c(F)c1-c1ccc(C(F)(F)F)nc1OC [Compound 43B]	> 1000 nM	–
CCOc1c(C(C)c2nc(-c3ccc(OC)cc3)c3c(N)nccn23)cc(Cl)c(C)c1-c1ccc(OC)cc1 (stereo not drawn) [Compound 44, 3-(1-(5-chloro-2-ethoxy-4′-methoxy-6-methyl-[151′-biphenyl]-3-yl)ethyl)-1-(4-methoxyphenyl)imidazo[1,5-a]pyrazin-8-amine]	380 nM	–
CCOc1c(C(C)c2nc(Cl)c3c(N)nccn23)cc(Cl)c(F)c1C1CCOCC1 (stereo not drawn) [Compound 49, 1-chloro-3-(1-(5-chloro-2-ethoxy-4-fluoro-3-(tetrahydro-2H-pyran-4-yl)phenyl)ethyl)imidazo[1,5-a]pyrazin-8-anine]	3.1 nM	–
COc1c(C(C)c2nc(C)c3c(N)nccn23)cc(Cl)c(C)c1-c1cccnc1 (stereo not drawn) [Compound 52, 3-(1-(5-chloro-2-methoxy-4-methyl-3-(pyridin-3-yl)phenyl)ethyl)-1-methyl imidazo[1,5-a]pyrazin-8-amine]	7.7 nM	inhibition at 0.5 µM (PI3K (p110γ)): -11%; inhibition at 0.5 µM [2]: 6%
COc1c(C(C)c2nc(C3CC3)c3c(N)nccn23)cc(Cl)c(C)c1-c1cccnc1 (stereo not drawn) [Compound 53, 3-(1(5-chloro-2-methoxy-4-methyl-3-(pyridin-3-yl)phenyl)ethyl)-1-cyclopropyl imidazo[1,5-a]pyrazin-8-amine]	1900 nM	–
Cc1nn(C(C)c2cc(Cl)c(C#N)c(=O)n2-c2ccccc2)c2ncnc(N)c12 (stereo not drawn) [Compound 55, 6-(1-(4-amino-3-methyl-1H-pyrazolo[3,4-d]pyrimidin-1-yl)ethyl)-4-chloro-2-oxo-1-phenyl-1,2-dihydropyridine-3-carbonitrile]	450 nM	–
